Among the data in patent US10435405B2, “Pyrazolopyridine compounds and uses thereof” (Incyte Corporation, priority 2016, dated 2019) are Ki values, retold here.

pKi: −log10 of the molar value.

For this test, the target named is HPK1 (Homo sapiens (Human), UniProt Q92918). Put plainly: HPK1 Kinase Binding Assay. How it is done:
A stock solution of 1 mM test compound was prepared in DMSO. The compound plate was prepared by 3-fold and 11-point serial dilutions. 0.1 μL of the compound in DMSO was transferred from the compound plate to the white 384 well polystyrene plates. The assay buffer contained 50 mM HEPES, pH 7.5, 0.01% Tween-20, 5 mM MgCl2, 0.01% BSA, and 5 mM DTT. 5 μl of 4 nM active HPK1 (SignalChem M23-11G) prepared in the buffer was added to the plate. The enzyme concentration given was based on the given stock concentration reported by the vender. 5 μl of 18 nM tracer 222 (ThermoFisher PV6121) and 4 nM LanthaScreen Eu-Anti GST antibody (ThermoFisher PV5595) were added. After one hour incubation at 25° C., the plates were read on a PHERAstar FS plate reader (BMG Labtech). Ki values were determined.

HPK1, sequence (Q92918 1-346): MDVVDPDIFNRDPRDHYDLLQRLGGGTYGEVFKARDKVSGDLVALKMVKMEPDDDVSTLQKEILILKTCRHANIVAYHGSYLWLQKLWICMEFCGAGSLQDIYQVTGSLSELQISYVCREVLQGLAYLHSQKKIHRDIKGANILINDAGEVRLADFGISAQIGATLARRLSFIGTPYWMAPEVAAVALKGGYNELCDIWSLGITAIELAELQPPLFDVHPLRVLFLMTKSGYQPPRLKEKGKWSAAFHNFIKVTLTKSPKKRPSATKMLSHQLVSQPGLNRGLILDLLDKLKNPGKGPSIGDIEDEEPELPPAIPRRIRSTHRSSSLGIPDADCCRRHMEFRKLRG

With `COc1cccc(F)c1-c1cc2c(NC(=O)c3ccc(N4CCNCC4)cc3)n[nH]c2cn1` [Example 33, N-(5-(2-Fluoro-6-methoxyphenyl)-1H-pyrazolo[3,4-c]pyridin-3-yl)-4-(piperazin-1-yl)benzamide], the pKi is ≥ 7.00.
Turning to `Cn1cc(-c2n[nH]c3cnc(-c4c(F)cc(CNc5ccn(C)n5)cc4F)cc23)cn1` [Example 125, N-(3,5-Difluoro-4-(3-(1-methyl-1H-pyrazol-4-yl)-1H-pyrazolo[3,4-c]pyridin-5-yl)benzyl)-1-methyl-1H-pyrazol-3-amine], the pKi is ≥ 7.00.
On to `COc1cccc(F)c1-c1cc2c(C(=O)Nc3ccc(N4CCN(C)CC4)cc3)n[nH]c2cn1` [Example 54, 5-(2-Fluoro-6-methoxyphenyl)-N-(4-(4-methylpiperazin-1-yl)phenyl)-1H-pyrazolo[3,4-c]pyridine-3-carboxamide], for which the negative-log Ki (pKi) was ≥ 7.00.
As to `CO[C@H]1C[C@H](NCc2ccc(F)c(-c3cc4c(-c5cnn(C)c5)n[nH]c4cn3)c2C)C1` [Example 222, trans-N-(4-Fluoro-2-methyl-3-(3-(1-methyl-1H-pyrazol-4-yl)-1H-pyrazolo[3,4-c]pyridin-5-yl)benzyl)-3-methoxycyclobutanamine], the pKi is ≥ 7.00.
As for `CCN1CCN(c2ccc(NC(=O)c3n[nH]c4cnc(-c5c(F)cccc5OC)cc34)cc2)CC1` [Example 56, N-(4-(4-Ethylpiperazin-1-yl)phenyl)-5-(2-fluoro-6-methoxyphenyl)-1H-pyrazolo[3,4-c]pyridine-3-carboxamide], the pKi was ≥ 7.00.
As for `CC(C)NCc1cc(F)c(-c2cc3c(NC(=O)c4ccc(F)c(N5CCN(C)CC5)c4)n[nH]c3cn2)c(F)c1` [Example 151, N-(5-(2,6-Difluoro-4-((isopropylamino)methyl)phenyl)-1H-pyrazolo[3,4-c]pyridin-3-yl)-4-fluoro-3-(4-methylpiperazin-1-yl)benzamide], the pKi was ≥ 7.00.
In the case of `CNCc1cc(C)c(-c2cc3c(-c4cnn(C)c4)n[nH]c3cn2)c(F)c1` [Example 168, 1-(3-Fluoro-5-methyl-4-(3-(1-methyl-1H-pyrazol-4-yl)-1H-pyrazolo[3,4-c]pyridin-5-yl)phenyl)-N-methylmethanamine] it was ≥ 7.00; in that of `COc1cccc(F)c1-c1cc2c(NC(=O)c3ccc(N4CCN(C(C)C)CC4)cc3)n[nH]c2cn1` [Example 30, N-(5-(2-Fluoro-6-methoxyphenyl)-1H-pyrazolo[3,4-c]pyridin-3-yl)-4-(4-isopropylpiperazin-1-yl)benzamide], ≥ 7.00.
In the case of `CNC(C)c1cc(C)c(-c2cc3c(-c4cnn(C)c4)n[nH]c3cn2)c(F)c1` (single isomer, unassigned) [Example 189, 1-(3-Fluoro-5-methyl-4-(3-(1-methyl-1H-pyrazol-4-yl)-1H-pyrazolo[3,4-c]pyridin-5-yl)phenyl)-N-methylethanamine], the pKi is ≥ 7.00.
For `CN1CCN(c2ccc(C(=O)Nc3n[nH]c4cnc(-c5c(F)cc(CN6CCCC6)cc5F)cc34)cc2)CC1` [Example 141, N-(5-(2,6-Difluoro-4-(pyrrolidin-1-ylmethyl)phenyl)-1H-pyrazolo[3,4-c]pyridin-3-yl)-4-(4-methylpiperazin-1-yl)benzamide] the value was ≥ 7.00; for `CN1CCN(c2ccc(C(=O)Nc3n[nH]c4cnc(-c5c(F)cccc5C(F)(F)F)cc34)cc2)CC1` [Example 153, N-(5-(2-Fluoro-6-(trifluoromethyl)phenyl)-1H-pyrazolo[3,4-c]pyridin-3-yl)-4-(4-methylpiperazin-1-yl)benzamide], ≥ 7.00; for `CNCc1cc(F)c(-c2cc3c(-c4cncc(N5CCN(C)CC5)c4)n[nH]c3cn2)c(F)c1` [Example 219, 1-(3,5-Difluoro-4-(3-(5-(4-methylpiperazin-1-yl)pyridin-3-yl)-1H-pyrazolo[3,4-c]pyridin-5-yl)phenyl)-N-methylmethanamine], ≥ 7.00.
Take `Cn1cc(-c2n[nH]c3cnc(-c4cccc(CNC5CCOCC5)c4C(F)(F)F)cc23)cn1` [Example 90, N-(3-(3-(1-Methyl-1H-pyrazol-4-yl)-1H-pyrazolo[3,4-c]pyridin-5-yl)-2-(trifluoromethyl)benzyl)tetrahydro-2H-pyran-4-amine]: the pKi is ≥ 7.00.
In the case of `Cn1cc(-c2n[nH]c3cnc(-c4c(F)cc(OCc5ccncc5)cc4F)cc23)cn1` [Example 108, 5-(2,6-Difluoro-4-(pyridin-4-ylmethoxy)phenyl)-3-(1-methyl-1H-pyrazol-4-yl)-1H-pyrazolo[3,4-c]pyridine] it was ≥ 7.00.
For `COCCNC(=O)c1cc(F)c(-c2cc3c(-c4cnn(C)c4)n[nH]c3cn2)c(F)c1` [Example 57, 3,5-Difluoro-N-(2-methoxyethyl)-4-(3-(1-methyl-1H-pyrazol-4-yl)-1H-pyrazolo[3,4-c]pyridin-5-yl)benzamide] the value was ≥ 7.00.
As to `CNC(=O)c1ccc(-c2n[nH]c3cnc(-c4c(F)cccc4OC)cc23)cn1` [Example 101, 5-(5-(2-Fluoro-6-methoxyphenyl)-1H-pyrazolo[3,4-c]pyridin-3-yl)-N-methylpicolinamide], the negative-log Ki (pKi) is ≥ 7.00.
On to `CNCc1ccc(F)c(-c2cc3c(-c4cnn(C)c4)n[nH]c3cn2)c1C` [Example 92, 1-(4-Fluoro-2-methyl-3-(3-(1-methyl-1H-pyrazol-4-yl)-1H-pyrazolo[3,4-c]pyridin-5-yl)phenyl)-N-methylmethanamine], for which the pKi was ≥ 7.00.
Consider `COc1cccc(F)c1-c1cc2c(NC(=O)c3ccc(N4CCNC(=O)C4)cc3)n[nH]c2cn1` [Example 25, N-(5-(2-Fluoro-6-methoxyphenyl)-1H-pyrazolo[3,4-c]pyridin-3-yl)-4-(3-oxopiperazin-1-yl)benzamide], for which the pKi is ≥ 7.00.
For `COc1cccc(F)c1-c1cc2c(NCc3ccc(N4CCN(C)CC4)cc3)n[nH]c2cn1` [Example 41, 5-(2-Fluoro-6-methoxyphenyl)-N-(4-(4-methylpiperazin-1-yl)benzyl)-1H-pyrazolo[3,4-c]pyridin-3-amine], the negative logarithm of the Ki (pKi) is 5.70 to 6.30.
In the case of `CNCc1cc(C)c(-c2cc3c(-c4ccc(C(=O)NC)cc4)n[nH]c3cn2)c(F)c1` [Example 169, 4-(5-(2-Fluoro-6-methyl-4-((methylamino)methyl)phenyl)-1H-pyrazolo[3,4-c]pyridin-3-yl)-N-methylbenzamide], the pKi is ≥ 7.00.
Consider `Cc1cc(NC(=O)CN2C3CCC2CC3)cc(F)c1-c1cc2c(-c3cnn(C)c3)n[nH]c2cn1` [Example 82, 2-(7-Azabicyclo[2.2.1]heptan-7-yl)-N-(3-fluoro-5-methyl-4-(3-(1-methyl-1H-pyrazol-4-yl)-1H-pyrazolo[3,4-c]pyridin-5-yl)phenyl)acetamide], for which the pKi was ≥ 7.00.
For `CNCc1cc(F)c(-c2cc3c(-c4cnc(N5CCC(O)CC5)nc4)n[nH]c3cn2)c(F)c1` [Example 218, 1-(5-(5-(2,6-Difluoro-4-((methylamino)methyl)phenyl)-1H-pyrazolo[3,4-c]pyridin-3-yl)pyrimidin-2-yl)piperidin-4-ol] the value was ≥ 7.00; for `Cc1cc(CNCC#N)cc(F)c1-c1cc2c(-c3cnn(C)c3)n[nH]c2cn1` [Example 188, 2-(3-Fluoro-5-methyl-4-(3-(1-methyl-1H-pyrazol-4-yl)-1H-pyrazolo[3,4-c]pyridin-5-yl)benzylamino)acetonitrile], ≥ 7.00; for `CNCc1cc(F)c(-c2cc3c(-c4ccnc(N5CCN(C)CC5)c4)n[nH]c3cn2)c(F)c1` [Example 163, 1-(3,5-Difluoro-4-(3-(2-(4-methylpiperazin-1-yl)pyridin-4-yl)-1H-pyrazolo[3,4-c]pyridin-5-yl)phenyl)-N-methylmethanamine], ≥ 7.00.
As for `Cn1cc(-c2n[nH]c3cnc(-c4cccc(CN5CCC5)c4C(F)(F)F)cc23)cn1` [Example 89, 5-(3-(Azetidin-1-ylmethyl)-2-(trifluoromethyl)phenyl)-3-(1-methyl-1H-pyrazol-4-yl)-1H-pyrazolo[3,4-c]pyridine], the pKi was ≥ 7.00.
Turning to `COc1cccc(F)c1-c1cc2c(NC(=O)c3ccn(C)n3)n[nH]c2cn1` [Example 15, N-(5-(2-Fluoro-6-methoxyphenyl)-1H-pyrazolo[3,4-c]pyridin-3-yl)-1-methyl-1H-pyrazole-3-carboxamide], the pKi is ≥ 7.00.
`CNCc1cc(C)c(-c2cc3c(-c4cnn(-c5ccccc5C#N)c4)n[nH]c3cn2)c(F)c1` [Example 135, 2-(4-(5-(2-Fluoro-6-methyl-4-((methylamino)methyl)phenyl)-1H-pyrazolo[3,4-c]pyridin-3-yl)-1H-pyrazol-1-yl)benzonitrile]: the pKi is ≥ 7.00.
`COc1cc(N2CCN(C)CC2)ccc1C(=O)Nc1n[nH]c2cnc(-c3c(F)cc(CNC(C)C)cc3F)cc12` [Example 149, N-(5-(2,6-Difluoro-4-((isopropylamino)methyl)phenyl)-1H-pyrazolo[3,4-c]pyridin-3-yl)-2-methoxy-4-(4-methylpiperazin-1-yl)benzamide]: the pKi was ≥ 7.00.
In the case of `Cn1cc(-c2n[nH]c3cnc(-c4c(F)ccc(CCNC5CCOCC5)c4F)cc23)cn1` [Example 98, N-(2,4-Difluoro-3-(3-(1-methyl-1H-pyrazol-4-yl)-1H-pyrazolo[3,4-c]pyridin-5-yl)phenethyl)tetrahydro-2H-pyran-4-amine], the pKi was ≥ 7.00.
As to `CNC(=O)c1ccc(-c2n[nH]c3cnc(-c4c(F)ccc5c4CCCC5NC)cc23)cn1` (stereo not drawn) [Example 208, 5-(5-(2-Fluoro-5-(methylamino)-5,6,7,8-tetrahydronaphthalen-1-yl)-1H-pyrazolo[3,4-c]pyridin-3-yl)-N-methylpicolinamide], the pKi was ≥ 7.00.

For orientation: pKi means −log10 of the Ki, conventionally taken in molar units. Higher therefore signals a small Ki.
